Legend:
[1] = biological target: T1, DDR1 (Mus musculus, UniProt Q03146); assay: Cellular assay: inhibition of Collagen I-induced DDR1 autophosphorylation in HEK293T cells transiently transfected with DDR1 plasmid (Western blot); assay type: cell-based, human; conditions: pcDNA3.1 DDR1 WT mouse plasmid, compound 1 h, then 10 µg/mL Collagen I 1 h, P-DDR1 (Y513), read-out: pDDR1 EC50
T1 construct: expressed in transfected cells; host or cells: HEK293T
T1 sequence (Q03146 20-911): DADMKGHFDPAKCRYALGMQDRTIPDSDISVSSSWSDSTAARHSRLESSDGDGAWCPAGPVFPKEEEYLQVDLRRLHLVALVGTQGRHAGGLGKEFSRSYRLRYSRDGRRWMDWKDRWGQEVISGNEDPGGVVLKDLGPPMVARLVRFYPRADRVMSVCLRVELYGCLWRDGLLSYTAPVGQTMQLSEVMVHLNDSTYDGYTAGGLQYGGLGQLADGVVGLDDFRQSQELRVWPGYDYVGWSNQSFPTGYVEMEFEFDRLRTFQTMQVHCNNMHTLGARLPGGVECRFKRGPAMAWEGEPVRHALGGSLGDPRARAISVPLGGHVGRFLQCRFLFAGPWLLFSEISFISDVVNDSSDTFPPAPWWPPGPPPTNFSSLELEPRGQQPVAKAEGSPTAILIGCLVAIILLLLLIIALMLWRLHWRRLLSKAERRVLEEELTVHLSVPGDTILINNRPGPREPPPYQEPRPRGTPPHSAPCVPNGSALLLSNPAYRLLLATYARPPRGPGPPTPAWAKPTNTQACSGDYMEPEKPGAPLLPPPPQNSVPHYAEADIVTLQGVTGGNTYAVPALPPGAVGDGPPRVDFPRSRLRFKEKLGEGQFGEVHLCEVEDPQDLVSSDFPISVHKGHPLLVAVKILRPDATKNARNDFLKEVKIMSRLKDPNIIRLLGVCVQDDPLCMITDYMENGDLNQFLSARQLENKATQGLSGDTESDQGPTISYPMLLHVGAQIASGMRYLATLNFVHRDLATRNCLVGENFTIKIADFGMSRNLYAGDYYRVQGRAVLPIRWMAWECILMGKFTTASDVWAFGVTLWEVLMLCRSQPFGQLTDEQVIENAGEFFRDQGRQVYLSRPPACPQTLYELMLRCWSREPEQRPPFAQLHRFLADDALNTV
Protocol: DDR1/2 cellular assay: Transient transfection of HEK293T cells with DDR1 plasmid is used to study the inhibition of the autophosphorylation of DDR1 induced by Collagen I in cells. HEK293T are seeded, 6x10^5 cells per well in 6-well plates and incubated for 6 h at 37 °C, 5% CO2. Then, cells are transfected using Effectene reactive (Quiagen) with pcDNA3.1 DDR1 WT mouse plasmid. Cells are incubated with transfection complexes under normal growth conditions for 24 h. After that, medium is replaced with fresh medium and cells are incubated for an additional 18 h. Eight serial 1:3 compound dilutions are made in DMSO. The compounds are added to each well of 6 well cell plates and are incubated at 37 °C under CO2 atmosphere 1 h. DDR1's autophosphorylation is stimulated by 1h treatment with 10 µg/mL Collagen I. Then, cells are washed in PBS, lyse adding 100 µl of complete RIPA protein lysis buffer (RIPA Buffer, 1 mM DTT, 5 mM Bezamidine, 10 µg/mL Aprotinin, 10 µg/mL Leupeptin, 710 ng/mL Pepstatin A, 100 µg/mL Trypsin Inhibitor, 40 µg/mL Bestatin, completed with PhosSTOP EASYpack and complete Mini, EDTA-free) and incubated 20 minutes at 4 °C and then centrifugated. Lysates are kept at -80 °C. The protein content of the lysates is determined by DC protein assay (Biorad, Ref. 5000116). The proteins are resolved by SDS-PAGE and transferred to nitrocellulose membrane (GE Healthcare #10600003). The membranes are incubated overnight at 4 °C with antibodies specific for DDR1 (D1G6) (Cell signaling #5583), P-DDR1 (Y513) (E1N8F) (Cell Signaling # 14531) they are washed and then incubated with Alexa Fluor 680 goat anti-rabbit IgG secondary antibodies (Invitrogen, A21076). The bands are visualized and quantified using an Odyssey infrared imaging system (Li-Cor Biosciences). The percentage of DDR1 phosphorylation is finally plotted against concentration for each compound and EC50s for intracellular DDR1 inhibition are calculated using ActivityBase from IDBS.

[2] = biological target: T2, DDR1 (Homo sapiens, UniProt Q08345); assay: LanthaScreen Eu-Kinase Binding Assay (TR-FRET tracer displacement), DDR1; conditions: catalytic domain GST Tag DDR1; Kinase Tracer 178
T2 construct: The enzymes were purchased as a catalytic domain GST Tag DDR1(#PR6913A); purchased ThermoFisher PR6913A
Source text: (§1) DDR1/2 binding assay: The binding assay relies on the LanthaScreen ™ Eu-Kinase Binding Assay (ThermoFisher Scientfic). This is a kinase assay platform based on measuring the binding and displacement of an Alexa Fluor® conjugate of an ATP-competitive kinase inhibitor or tracer at a kinase active site (Kinase Tracer 178. #PV5593). Binding of the tracer to the kinase is detected by addition of a europium (Eu)-labeled anti-GST antibody (#PV 5594) which specifically labels the kinase of interest. This binding results in a high degree of fluorescence resonance energy transfer (FRET), whereas displacement of the tracer with a kinase inhibitor results in a loss of FRET. The enzymes were purchased as a catalytic domain GST Tag DDR1(#PR6913A) and DDR2 (#PR7167A) from ThermoFisher. Assay conditions were as indicated by the kit manufacturers. Assays were performed in 384-well plates. The final read out was generated using an EnVision plate reader (Perkin-Elmer). The emission ratio was calculated by dividing the acceptor/tracer emission (665 nm) by the antibody/donor emission (615 nm). Values were plotted against the inhibitor concentration and fit to a sigmoid dose-response curve using Activity base by IDBS software.

[3] = biological target: T3, DDR2 (Homo sapiens, UniProt Q16832); assay: LanthaScreen Eu-Kinase Binding Assay (TR-FRET tracer displacement), DDR2; conditions: catalytic domain GST Tag DDR2; Kinase Tracer 178
T3 construct: The enzymes were purchased as a catalytic domain GST Tag DDR1(#PR6913A) and DDR2 (#PR7167A); purchased ThermoFisher PR7167A
T3 sequence (Q16832 563-849 limits assumed): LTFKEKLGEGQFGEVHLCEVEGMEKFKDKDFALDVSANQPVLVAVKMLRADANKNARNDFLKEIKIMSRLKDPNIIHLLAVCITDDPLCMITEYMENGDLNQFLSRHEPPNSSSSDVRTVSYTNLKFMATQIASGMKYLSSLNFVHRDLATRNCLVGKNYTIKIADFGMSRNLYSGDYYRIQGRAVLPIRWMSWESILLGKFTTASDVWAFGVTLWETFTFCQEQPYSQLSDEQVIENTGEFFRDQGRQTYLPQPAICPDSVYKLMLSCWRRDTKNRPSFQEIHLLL
Source text: as §1

T2 sequence (Q08345 610-905 limits assumed): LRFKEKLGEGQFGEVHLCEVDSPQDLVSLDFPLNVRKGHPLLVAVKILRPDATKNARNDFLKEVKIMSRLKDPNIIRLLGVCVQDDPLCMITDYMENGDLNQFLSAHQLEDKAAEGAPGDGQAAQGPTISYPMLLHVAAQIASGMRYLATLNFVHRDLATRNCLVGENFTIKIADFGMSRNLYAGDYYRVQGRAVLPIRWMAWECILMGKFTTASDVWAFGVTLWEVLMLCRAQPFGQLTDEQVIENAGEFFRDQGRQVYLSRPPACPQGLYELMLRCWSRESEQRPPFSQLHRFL

An EC50 [1] of 31.4 nM, an IC50 [2] of 11.6 nM and an IC50 [3] of 29 nM were found for `NS(=O)(=O)c1cccc(Nc2nccc(-c3sc4nccc(=O)n4c3-c3ccc(Cl)cc3)n2)c1` [Compound 43, 3-{4-[3-(4-Chloro-phenyl)-5-oxo-5H-thiazolo[3,2-a]pyrimidin-2-yl]-pyrimidin-2-ylamino}-benzenesulfonamide] in this work.
An EC50 [1] of 21.8 nM, an IC50 [2] of 2.28 nM and an IC50 [3] of 6.37 nM were found for `CN1CCN(c2ccc(Nc3nccc(-c4sc5nccc(=O)n5c4-c4ccccc4O)n3)cc2)CC1` [Compound 55, 3-(2-Hydroxy-phenyl)-2-{2-[4-(4-methyl-piperazin-1-yl)-phenylamino]-pyrimidin-4-yl}-thiazolo[3,2-a]pyrimidin-5-one] in this work.
An EC50 [1] of 15.7 nM, an IC50 [2] of 13.4 nM and an IC50 [3] of 39.4 nM were found for `CN1CCN(c2ccc(Nc3nccc(-c4sc5nccc(=O)n5c4-c4ccccc4)n3)cc2)CC1` [Compound 34, 2-{2-[4-(4-Methyl-piperazin-1-yl)-phenylamino]-pyrimidin-4-yl}-3-phenyl-thiazolo[3,2-a]pyrimidin-5-one] in this work.
An EC50 [1] of 63.2 nM, an IC50 [2] of 12.9 nM and an IC50 [3] of 40.8 nM were found for `NS(=O)(=O)c1cccc(Nc2nccc(-c3sc4nccc(=O)n4c3-c3ccc(Cl)c(Cl)c3)n2)c1` [Compound 61, 3-{4-[3-(3,4-Dichloro-phenyl)-5-oxo-5H-thiazolo[3,2-a]pyrimidin-2-yl]-pyrimidin-2-ylamino}-benzenesulfonamide] in this work.
An EC50 [1] of 59 nM, an IC50 [2] of 9.06 nM and an IC50 [3] of 26.9 nM were found for `Cc1cc(=O)n2c(-c3ccccc3)c(-c3ccnc(Nc4cccc(N5CCN(CCO)CC5)c4)n3)sc2n1` [Compound 72, 2-(2-{3-[4-(2-Hydroxy-ethyl)-piperazin-1-yl]-phenylamino}-pyrimidin-4-yl)-7-methyl-3-phenyl-thiazolo[3,2-a]pyrimidin-5-one] in this work.
An EC50 [1] of 21.1 nM, an IC50 [2] of 4.54 nM and an IC50 [3] of 15 nM were found for `CN1CCN(c2ccc(Nc3nccc(-c4sc5nccc(=O)n5c4-c4ccc(O)cc4)n3)cc2)CC1` [Compound 57, 3-(4-Hydroxy-phenyl)-2-{2-[4-(4-methyl-piperazin-1-yl)-phenylamino]-pyrimidin-4-yl}-thiazolo[3,2-a]pyrimidin-5-one] in this work.
An EC50 [1] of 34.6 nM, an IC50 [2] of 147 nM and an IC50 [3] of 423 nM were found for `CCOC(=O)c1cnc2sc(-c3ccnc(Nc4cccc(N5CCN(CCO)CC5)c4)n3)c(-c3ccccc3)n2c1=O` [Compound 71, 2-(2-{3-[4-(2-Hydroxy-ethyl)-piperazin-1-yl]-phenylamino}-pyrimidin-4-yl)-5-oxo-3-phenyl-5H-thiazolo[3,2-a]pyrimidine-6-carboxylic acid ethyl ester] in this work.
An EC50 [1] of 28.1 nM, an IC50 [2] of 4.22 nM and an IC50 [3] of 16.6 nM were found for `O=c1ccnc2sc(-c3ccnc(Nc4cccc(N5CCN(CCO)CC5)c4)n3)c(-c3ccccc3Cl)n12` [Compound 38, 3-(2-Chloro-phenyl)-2-(2-{3-[4-(2-hydroxy-ethyl)-piperazin-1-yl]-phenylamino}-pyrimidin-4-yl)-thiazolo[3,2-a]pyrimidin-5-one] in this work.
An EC50 [1] of 30.7 nM, an IC50 [2] of 5.8 nM and an IC50 [3] of 17.9 nM were found for `CN1CCN(c2ccc(Nc3nccc(-c4sc5nccc(=O)n5c4-c4cccc(Cl)c4)n3)cc2)CC1` [Compound 42, 3-(3-Chloro-phenyl)-2-{2-[4-(4-methyl-piperazin-1-yl)-phenylamino]-pyrimidin-4-yl}-thiazolo[3,2-a]pyrimidin-5-one] in this work.
An EC50 [1] of 35.3 nM, an IC50 [2] of 7.03 nM and an IC50 [3] of 21.5 nM were found for `CN1CCN(c2ccc(Nc3nccc(-c4sc5nccc(=O)n5c4-c4ccccc4Cl)n3)cc2)CC1` [Compound 39, 3-(2-Chloro-phenyl)-2-{2-[4-(4-methyl-piperazin-1-yl)-phenylamino]-pyrimidin-4-yl}-thiazolo[3,2-a]pyrimidin-5-one] in this work.
An EC50 [1] of 192 nM, an IC50 [2] of 15.5 nM and an IC50 [3] of 18 nM were found for `O=c1ccnc2sc(-c3ccnc(Nc4cccc(N5CCN(CCO)CC5)c4)n3)c(-c3ccccc3)n12` [Compound 31, 2-(2-{3-[4-(2-Hydroxy-ethyl)-piperazin-1-yl]-phenylamino}-pyrimidin-4-yl)-3-phenyl-thiazolo[3,2-a]pyrimidin-5-one] in this work.
An EC50 [1] of 339 nM, an IC50 [2] of 69.9 nM and an IC50 [3] of 186 nM were found for `O=c1ccnc2sc(-c3ccnc(Nc4ccccc4)n3)c(-c3ccccc3)n12` [Compound 29, 3-Phenyl-2-(2-phenylamino-pyrimidin-4-yl)-thiazolo[3,2-a]pyrimidin-5-one] in this work.
An EC50 [1] of 141 nM, an IC50 [2] of 15.3 nM and an IC50 [3] of 55.8 nM were found for `Cc1nc2sc(-c3ccnc(Nc4cccc(N5CCN(CCO)CC5)c4)n3)c(-c3ccccc3)n2c(=O)c1C` [Compound 75, 2-(2-{3-[4-(2-Hydroxy-ethyl)-piperazin-1-yl]-phenylamino}-pyrimidin-4-yl)-6,7-dimethyl-3-phenyl-thiazolo[3,2-a]pyrimidin-5-one] in this work.
An EC50 [1] of 99.3 nM, an IC50 [2] of 10.2 nM and an IC50 [3] of 47.3 nM were found for `NS(=O)(=O)c1cccc(Nc2nccc(-c3sc4nccc(=O)n4c3-c3cccc(Cl)c3Cl)n2)c1` [Compound 59, 3-{4-[3-(2,3-Dichloro-phenyl)-5-oxo-5H-thiazolo[3,2-a]pyrimidin-2-yl]-pyrimidin-2-ylamino}-benzenesulfonamide] in this work.
An EC50 [1] of 24.9 nM, an IC50 [2] of 2.73 nM and an IC50 [3] of 11.7 nM were found for `O=c1ccnc2sc(-c3ccnc(Nc4cccc(N5CCN(CCO)CC5)c4)n3)c(-c3ccc(Cl)cc3)n12` [Compound 44, 3-(4-Chloro-phenyl)-2-(2-{3-[4-(2-hydroxy-ethyl)-piperazin-1-yl]-phenylamino}-pyrimidin-4-yl)-thiazolo[3,2-a]pyrimidin-5-one] in this work.

Source: EP4032896A1, “THIAZOLOPYRIMIDONES AS INHIBITORS OF DDR1/2 AND THERAPEUTIC USES THEREOF” (Fundación del Sector Público Estatal Centro Nacional de …, priority 2021, dated 2022)
